In paper PMC4443670, “The C-terminal region of the motor protein MCAK controls its structure and activity through a conformational switch” (eLife, 2015):
Entries after “also recorded” stand apart in the source; their conditions may differ. Ends that are not written are not given here.

Key:
[1] = tested on: MCAK motor domain (Cys287); assay: Covalent (disulphide) attachment of the CT domain to the motor domain; format: binding, human
Procedure: The GST-CTE712C and CTE712C domains were cross-linked to the motor domain by incubating them with the motor domain in a buffer containing 100 mM HEPES, pH 7.4, 150 mM NaCl but lacking DTT for 1 hr at 4°C. As a negative control the motor domain and the CTE712C domain were incubated in the identical buffer, supplemented with 5 mM DTT.

[2] = tested on: taxol-stabilized microtubules; assay: Microtubule cosedimentation assay, untreated microtubules; format: binding; conditions: for detection of CT domain in microtubule-bound pellet / supernatant: western blot, 50 nM motor domain, with and without DTT
Procedure: Full-length MCAK complex was diluted in S buffer (50 mM NaCl, 20 mM Hepes pH 7.0) to 50 nM, in absence of nucleotide to prevent MCAK-dependent microtubule depolymerisation. To assemble an MCAK motor-CT domain complex, 50 nM of the motor domain and 100 nM of the CT domain were used. Microtubule binding assays were performed as described ([Cheeseman et al., 2006]) using equal volumes of taxol-stabilized microtubules in BRB80 and MCAK in S buffer. MCAK was quantified using anti-MCAK antibody against the C terminus of MCAK (709[…]720), generated by GL Biochem (Shangai) Ltd (China) or anti-His antibody to probe for the motor domain alone (GE Healthcare Lifesciences, UK). The data from at least three independent experiments were fitted to a modified Hill equation to determine the apparent Kd.

[3] = tested on: taxol-stabilized microtubules; assay: Microtubule depolymerisation assay; format: biochemical
Procedure: Microtubule depolymerization assays were performed essentially as described previously ([Hertzer et al., 2006]). MCAK was diluted to 100 nM in S-buffer containing 1 mM DTT and 2 mM Mg-ATP. For depolymerization assays of the motor domain in presence of the CT domain after GST cleavage and removal, 50 nM of motor domain and 100 nM of the CT domain were used. The microtubule depolymerization assay was initiated by the addition of 2 μM taxol-stabilized microtubules to a reaction buffer containing MCAK. Reactions were incubated at room temperature with increasing times and followed by centrifugation to separate microtubules from free tubulin. The data are represented as mean ± SD from three independent experiments.

GST-CT domain = assay: Resin-based binding assay, CT domain self-interaction (CT domain to GST-CT); parameters: species or system human; conditions: GST-CT on glutathione agarose; GST-cleaved CT domain
Text: Kinesin-1 is regulated through an auto-inhibitory mechanism whereby one C-terminal tail binds at the interface of the two motors, such that it creates a second point of attachment in addition to the coiled coil region. This limits the head movement of one kinesin with respect to the other ([Stock et al., 1999]; [Hackney and Stock, 2000]; [Kaan et al., 2011]). We sought to test whether the C-terminal tail domain of MCAK, which has been proposed to regulate MCAK activity ([Moore and Wordeman, 2004]), was sufficient to interact with the motor domain. To do this, we expressed the N-terminal and motor region (residues 1–583, termed NM) or the motor region of MCAK along with the neck linker region (residues 181–583, termed M) as His-tagged proteins, and the C-terminal MCAK tail (residues 700–725, termed CT domain) as a GST fusion protein ([Moore and Wordeman, 2004]; [Hertzer et al., 2006]) (Figure 1A). […] We cannot however exclude a very tight interaction between two CT domains. […]
Protein expression was induced by addition of 0.5 mM IPTG to BL21(DE3) Codon plus cells transformed with respective constructs at OD600 of 0.7–0.8 for 16 hr at 18°C. […] Protein concentrations were determined with a combination of Bradford protein assays and densitometry of Coomassie-stained gels relative to a BSA standard. […]

MCAK motor domain [4] = molecular target: T1, MCAK motor domain (Homo sapiens, UniProt Q99661); assay: Analytical size-exclusion chromatography (motor-CT complex formation); format: binding; conditions: Superdex 75 or Superose 6 10/300 GL; Coomassie-stained gel of fractions
T1 construct: His-MCAK (183–583, M) and His-MCAK (1–583, NM) were subcloned in pET3aTr vector; made in house; host or cells: E. coli BL21(DE3) Codon plus
T1 sequence (Q99661 183-583): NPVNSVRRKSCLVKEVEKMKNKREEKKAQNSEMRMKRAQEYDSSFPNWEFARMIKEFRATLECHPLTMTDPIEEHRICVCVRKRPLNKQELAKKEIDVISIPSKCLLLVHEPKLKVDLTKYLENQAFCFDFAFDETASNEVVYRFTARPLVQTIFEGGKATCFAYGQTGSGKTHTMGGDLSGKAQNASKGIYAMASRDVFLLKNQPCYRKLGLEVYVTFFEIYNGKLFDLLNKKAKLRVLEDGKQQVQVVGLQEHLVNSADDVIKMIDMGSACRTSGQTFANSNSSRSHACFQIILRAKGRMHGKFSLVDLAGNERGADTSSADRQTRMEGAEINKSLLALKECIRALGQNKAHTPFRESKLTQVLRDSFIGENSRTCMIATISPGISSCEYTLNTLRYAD
Text: Full-length MCAK is a dimer in solution ([Maney et al., 2001]). Therefore, we sought to test whether the CT domain interacts with one or two motor domains. To define the stoichiometry of this interaction, we subjected the complex to analytical size-exclusion chromatography. The motor domain alone behaves as a monomer and eluted with an apparent size of ∼45 kDa. […] Using SDS-PAGE analysis, we confirmed that the shift to a larger complex was due to the interaction of the motor domain with the CT domain (Figure 1C, bottom). […] The predicted masses for complexes of one and two CT domains bound to two motor domains are ∼94.2 and 97.7 kDa, respectively. […] Since the CT domain is unlikely to dimerize alone (Figure 1B), we conclude that the MCAK CT domain induces the dimerization of the motor domains cooperatively.
Protein expression was induced by addition of 0.5 mM IPTG to BL21(DE3) Codon plus cells transformed with respective constructs at OD600 of 0.7–0.8 for 16 hr at 18°C. Cells were lysed by sonication in lysis buffer (50 mM Hepes, pH 7.4, 200 mM NaCl, 1 mM MgCl2, 1 mM PMSF, 1 mg/ml DNaseI, 2 mg/ml lysozyme, 10 mM Imidazole) and clarified at 20,000 rpm for 1 hr at 4°C. His-tagged and GST-tagged proteins were subsequently purified using Ni-NTA–agarose beads and glutathione-sepharose beads, respectively (GE Healthcare Life Sciences, UK)) according to the manufacturer's guidelines. MCAK constructs containing the motor domain were eluted with elution buffer (50 mM Hepes, pH 7.4, 200 mM NaCl, 1 mM MgCl2, 1 mM ATP, and 300 mM imidazole). Cleavage of the GST tag was performed using the GST-3C protease overnight at 4°C. […] Protein concentrations were determined with a combination of Bradford protein assays and densitometry of Coomassie-stained gels relative to a BSA standard. […]

MCAK motor domain [5] = molecular target: T1, MCAK motor domain; assay: X-ray crystal structure of motor domain with CT peptide (PDB 4UBF)
Procedure: 1 mM MCAK motor domain (PDB:2HEH, Addgene, Cambridge MA, USA) was incubated with the CT peptide 709[…]720 (China peptides Co, Ltd, China) in a ratio of 1:2 for 1 hr at 4°C before setting up crystallization trials. Elongated rectangular crystals appeared by vapor diffusion after two days in sitting drops using 24% wt/vol PEG 1500 and 20% vol/vol Glycerol as a precipitant. Crystals were grown in MRC 2 Well Crystallization Plate (Hampton Research, Aliso Viejo, CA, USA) at 19°C. Crystals were cryoprotected in a solution containing 28% wt/vol PEG 1500 and 30% vol/vol Glycerol and flash-frozen in dry liquid nitrogen.
Diffraction data were recorded at Diamond Light Source on beamline ID24 at 100 K. Data were processed using XDS package ([Kabsch, 2010]) and SCALA operated through the CCP4 suite GUI ([Collaborative Computational Project, Number 4, 1994]). The structure of the MCAK motor-tail complex was solved by molecular replacement using the program MOLREP. The MCAK motor domain structure (PDB code: 2HEH) was used as a search model. Structure refinement was performed using Refmac5 and Phenix ([Adams et al., 2010]). Figures were prepared using PyMOL ([Delano, 2002]).

Row | binding to MCAK motor, presence of DTT ([1]; 5 mM DTT) | microtubule depolymerase activity of motor with CTE712C domain, absence of DTT ([3]; 50 nM motor domain, 100 nM CTE712C domain, 2 μM taxol-stabilized microtubules, no DTT, apparent activity) | RMSD of overall structure of MCAK on CT domain binding (MCAK motor domain [5]; 3 Å crystal structure) | Substance | non-covalently bound MCAK fraction ([1]; motor-CTE712C domain complex, absence of DTT, Figure 6—figure supplement 1F) | formation of covalent complex with motor ([1]; oxidizing conditions (without DTT), 100 mM HEPES pH 7.4, 150 mM NaCl, 1 hr at 4°C) | reduction of fraction of MCAK motor bound to microtubules ([2]; 50 nM motor domain + CTE712C domain, oxidizing conditions (no DTT), absence of nucleotide) | detection of CT domain in microtubule-bound pellet / supernatant [2] | microtubule depolymerase activity of motor with CTE712C domain, presence of DTT ([3]; 50 nM motor domain, 100 nM CTE712C domain, 2 μM taxol-stabilized microtubules, with DTT) | specific depolymerase activity of covalent MCAK motor-CTE712C complex ([3]; calculated by subtracting activity of motor alone (~50% of population)) | interaction of CT domain with itself (GST-CT domain) | binding to / co-migration with motor domain by gel filtration (MCAK motor domain [4]) | effect of free CT domain on MCAKS715E binding to microtubules ([2]; 100 nM full-length MCAKS715E, 2 μM taxol-stabilized microtubules, increasing free CT or CTS715E, repeated three times) | binding mode in crystal structure (MCAK motor domain [5]; 3 Å, peptide 709QLEEQASRQISS720)
1 | did not bind the MCAK motor | displayed reduced depolymerase activity |  | CTE712C: CT domain with Glu712 mutated to cysteine, forms disulphide bridge with motor Cys287 (VIKALRLAMQLECQASRQISSKKRPQ; also: Cys712 forms disulfide with motor Cys287; UniProt Q99661 700-725, looked up, fragment E712C) | 45–50% | formed a covalent complex | ~50% | did not detect | the depolymerase activity was similar to that of the wild type MCAK motor alone | strongly inhibits the depolymerase activity of MCAK |  |  |  | 
2 |  |  | 0.863 Å | GPLGSIKALRLAMQLEEQASRQISSKKRPQ-OH [CT domain] |  |  |  | did not detect |  |  | unable to interact with itself through dimerization | bound the motor domain independently of the GST; also recorded: the elution peak shifted to an earlier fraction, suggesting dimerization of the MCAK motor | decreased the affinity of MCAKS715E for microtubules | 
3 |  |  |  | 709QLEEQASRQISS720 [chemically synthesized peptide corresponding to the CT domain] |  |  |  |  |  |  |  |  |  | a single CT domain binds to both motor domains, close to their neck linker regions
